Patent publication US4245050A, “Process for the preparation of choline oxidase by fermentation” (Kyowa Hakko Kogyo Co., Ltd., priority 1976, dated 1981)
Structures can show the parent of a compound that is named as a salt. Where two headings read alike, the source gives them in different places. Values belong to the compound of their own block, whether it stands above or below them.

Legend:
[1] = tested on: Brevibacterium album KY 4319
Procedure: A 0.05 mol/L Tris buffer solution (pH 8.0) containing 0.01 mol/L of 4-aminoantipyrine, 0.01 mol/L of phenol and 5000 U/L of peroxidase is prepared and used as color-forming liquid. […] Reaction is carried out at 37° C. for 20 minutes and then the absorbancy of the solution is measured at 500 nm. The amount of the reacted choline chloride is calculated based on the measured value. The enzyme activity is expressed by "U" which is defined as the amount of enzyme which will decompose 1 μmole of choline in 1 minute under the above-described conditions.

[2] = tested on: choline oxidase derived from Brevibacterium album KY 4319; settings: for oxygen consumed per 1 mol of substrate (concluded stoichiometry): conclusion from Table 3; for Amount of O2 uptake [B]: 37° C., pH 8.0
Procedure: (§3) In the following Experiment (1) and (2), choline oxidase, derived from Brevibacterium album KY 4319 is used.
Then, 0.5 ml of 0.05 mol/L Tris buffer (pH 8.0) containing 1.5 U/ml of choline oxidase is put in the side arm, and reaction is carried out at 37° C. During the reaction, the amount of oxygen uptake (volume) is measured at regular intervals of time. The reaction is completed in 30-40 minutes.

[3] = tested on: choline oxidase derived from C. murisepticum KY 3505; test: Substrate specificity of choline oxidase; assay type: biochemical, Corynebacterium murisepticum; settings: enzyme 0.4 U/ml; activity on choline chloride defined as 100
Procedure: (§1) The activity of choline oxidase in the experimental examples and the following examples is determined by oxidizing choline with choline oxidase to produce hydrogen peroxide, decomposing hydrogen peroxide with peroxidase in the presence of phenol and 4-aminoantipyrine to produce the pigment, and measuring the absorbancy of the pigment solution as described below.
(§2) Choline oxidase is dissolved in 0.05 mol/L Tris buffer having a pH of 8.0 to make up a specific concentration (1.5 and 0.4 U/ml respectively in case of choline oxidase derived from KY 4319 and KY 3505 strains). The solutions are then subjected to the same determination of choline oxidase as described above except that the various substances other than choline chloride shown in Table 3 are used as a substrate. The relative activities on the various substrates are calculated by defining the activity on choline chloride as 100.

[4] = tested on: Corynebacterium murisepticum KY 3505
Procedure: as §1
In this experimental example, Brevibacterium album KY 4319 and Corynebacterium murisepticum KY 3505 are used. 10 ml portions of a nutrient medium having the following composition are poured into 70 ml-test tubes and sterilized at 120° C. for 15 minutes.
One loopful of the above strains are separately inoculated into the medium in the test tubes, and culturing is carried out with shaking at 30° C. for […].
After the completion of culturing, each of the culture liquors is subjected to centrifugation. The resultant microbial cells are suspended in 10 ml of 0.05 mol/L Tris buffer having a pH of 8.0 and disrupted by ultrasonic generator. The resultant mixture is subjected to centrifugation and choline oxidase activity of the supernatant is measured.

[5] = tested on: choline oxidase derived from Brevibacterium album KY 4319; settings: for hydrogen peroxide produced from 1 mol of substrate (concluded stoichiometry): conclusion from Table 4; for Amount of hydrogen peroxide [B']: 37° C., 20 minutes, pH 8.0
Procedure: as §3
In this experiment, 0.05 mol/L Tris buffer (pH 8.0) containing 0.001 mol/L of 4-aminoantripyrine, 0.001 mol/L of phenol and 50 mg/L of peroxidase is used as a color-forming liquid. […] The absorbancy of the reaction mixture is measured at 500 nm. The amount of hydrogen peroxide produced is calculated based on the measured value. The ratio of the amount of the hydrogen peroxide produced (μmol) to the amount of the charged substrate (μmol) is shown in Table 4.

[6] = tested on: choline oxidase derived from B. album KY 4319; test: Substrate specificity of choline oxidase; assay type: biochemical, Brevibacterium album; settings: enzyme 1.5 U/ml; activity on choline chloride defined as 100
Procedure: as §1, §2

[7] = tested on: choline oxidase derived from B. album KY 4319
Procedure: An approximately 4 ml-reactor for measurement of oxygen absorption is kept at 37° C. and an oxygen electrode is inserted therein. Choline oxidase is dissolved in 0.05 mol/L Tris buffer having a pH of 8.0 to make up a concentration of 0.8 U/ml. […] The concentration of oxygen dissolved in the solution is recorded continuously by recorder while stirring the solution. Decrease in oxygen concentration for 5 minutes after the start of the reaction is calculated.
The same procedure as above is repeated except that sodium azide is not added (control).

[8] = choline chloride 0.5 g/dl (36 mmol/L) in medium
[9] = choline chloride 1.0 g/dl (72 mmol/L) in medium
[10] = choline chloride 5.0 g/dl (360 mmol/L) in medium
[11] = choline chloride 10.0 g/dl (720 mmol/L) in medium

Structure (SMILES): C[N+](C)(C)CCO.[Cl-] [choline chloride]
- Activity of choline oxidase ([1]; choline chloride 0.1 g/dl (7.2 mmol/L) in medium, 30° C. culture, supernatant of disrupted cells): 13.0 U/dl
- Activity of choline oxidase [1, 8]: 35.4 U/dl
- Activity of choline oxidase [1, 9]: 32.7 U/dl
- Activity of choline oxidase [1, 10]: 23.4 U/dl
- Activity of choline oxidase [1, 11]: 15.1 U/dl
- oxygen consumed per 1 mol of substrate (concluded stoichiometry) [2]: 2 mol
- [B]/[A] (O2 uptake / charged substrate) ([2]; substrate 1.25 μmol): 1.87
- Amount of O2 uptake [B] ([2]; substrate 1.25 μmol): 2.34 µmol
- [B]/[A] (O2 uptake / charged substrate) ([2]; substrate 2.50 μmol): 1.89
- Amount of O2 uptake [B] ([2]; substrate 2.50 μmol): 4.72 µmol
- [B]/[A] (O2 uptake / charged substrate) ([2]; substrate 5.00 μmol): 1.91
- Amount of O2 uptake [B] ([2]; substrate 5.00 μmol): 9.56 µmol
- amount of oxygen consumed by 1 mol of substrate ([2]; summary of Table 3): 1.87 to 1.91 mol
- Substrate specificity (relative activity %) [3]: 100%
- Activity of choline oxidase ([4]; choline chloride 0.1 g/dl (7.2 mmol/L) in medium): 6.4 U/dl
- Activity of choline oxidase [4, 8]: 9.3 U/dl
- Activity of choline oxidase [4, 9]: 17.1 U/dl
- Activity of choline oxidase ([4]; choline chloride 2.0 g/dl (144 mmol/L) in medium): 17.5 U/dl
- Activity of choline oxidase [4, 10]: 12.8 U/dl
- Activity of choline oxidase [4, 11]: 6.7 U/dl
- hydrogen peroxide produced from 1 mol of substrate (concluded stoichiometry) [5]: 2 mol
- [B']/[A'] (hydrogen peroxide produced / charged substrate) ([5]; substrate 0.045 μmol): 1.80
- Amount of hydrogen peroxide [B'] ([5]; substrate 0.045 μmol): 0.081 µmol
- [B']/[A'] (hydrogen peroxide produced / charged substrate) ([5]; substrate 0.090 μmol): 1.67
- Amount of hydrogen peroxide [B'] ([5]; substrate 0.090 μmol): 0.150 µmol
- [B']/[A'] (hydrogen peroxide produced / charged substrate) ([5]; substrate 0.180 μmol): 1.72
- Amount of hydrogen peroxide [B'] ([5]; substrate 0.180 μmol): 0.310 µmol
- amount of hydrogen peroxide produced from 1 mol of substrate ([5]; summary of Table 4): 1.67 to 1.80 mol
- Substrate specificity (relative activity %) [6]: 100%

Structure (SMILES): C[N+](C)(C)CC=O [betaine aldehyde]
- oxygen consumed per 1 mol of substrate (concluded stoichiometry) [2]: 1 mol
- [B]/[A] (O2 uptake / charged substrate) ([2]; substrate 1.25 μmol): 0.88
- Amount of O2 uptake [B] ([2]; substrate 1.25 μmol): 1.10 µmol
- [B]/[A] (O2 uptake / charged substrate) ([2]; substrate 2.50 μmol): 0.92
- Amount of O2 uptake [B] ([2]; substrate 2.50 μmol): 2.31 µmol
- [B]/[A] (O2 uptake / charged substrate) ([2]; substrate 5.00 μmol): 0.93
- Amount of O2 uptake [B] ([2]; substrate 5.00 μmol): 4.67 µmol
- hydrogen peroxide produced from 1 mol of substrate (concluded stoichiometry) [5]: 1 mol
- [B']/[A'] (hydrogen peroxide produced / charged substrate) ([5]; substrate 0.045 μmol): 0.78
- Amount of hydrogen peroxide [B'] ([5]; substrate 0.045 μmol): 0.035 µmol
- [B']/[A'] (hydrogen peroxide produced / charged substrate) ([5]; substrate 0.090 μmol): 0.93
- Amount of hydrogen peroxide [B'] ([5]; substrate 0.090 μmol): 0.084 µmol
- [B']/[A'] (hydrogen peroxide produced / charged substrate) ([5]; substrate 0.180 μmol): 0.93
- Amount of hydrogen peroxide [B'] ([5]; substrate 0.180 μmol): 0.168 µmol

Structure (SMILES): NCCO [ethanolamine hydrochloride]
- Substrate specificity (relative activity %) [3]: 0%
- Substrate specificity (relative activity %) [6]: 0%

Structure (SMILES): NCC(=O)O [glycine]
- Substrate specificity (relative activity %) [3]: 0%
- Substrate specificity (relative activity %) [6]: 0%

Structure (SMILES): C[N+](C)(C)CC(=O)O [betaine]
- Substrate specificity (relative activity %) [3]: 0%
- Substrate specificity (relative activity %) [6]: 0%

- Substrate specificity (relative activity %) [3]: 0%
- Substrate specificity (relative activity %) [6]: 0%
Structure (SMILES): CNCC(=O)O [sarcosine]

- Substrate specificity (relative activity %) [3]: 0%
- Substrate specificity (relative activity %) [6]: 1.0%
Structure (SMILES): CNCCO [2-methylaminoethanol, 2-methyl-aminoethanol]

Structure (SMILES): CC(=O)OCC[N+](C)(C)C.[Cl-] [acetylcholine chloride]
- Substrate specificity (relative activity %) [3]: 0%
- Substrate specificity (relative activity %) [6]: 0%

Structure (SMILES): CN(C)CCO [2-dimethylaminoethanol, 2-dimethyl-aminoethanol]
- Substrate specificity (relative activity %) [3]: 8.5%
- Substrate specificity (relative activity %) [6]: 7.3%

Structure (SMILES): [N-]=[N+]=[N-] [sodium azide]
- Inhibitor [7]: Inhibitor
- enzyme activity inhibited, compared with the control ([7]; 1.7×10^-3 mol/L sodium azide, 37° C., pH 8.0, 5 minutes): 44.4%
